Data reported in patent publication US12637427B2, “ALDH-2 inhibitor compounds and methods of use” (Amygdala Neurosciences, Inc., priority 2022, dated 2026).

Experiments:
recombinant human ALDH-1 = molecular target: T1, recombinant human ALDH-1 (Homo sapiens, UniProt P00352); assay: ALDH-1 inhibition assay; format: biochemical; conditions: 60 min pre-incubation; 10 μM = highest concentration tested; read-out: Enzymatic Assays IC50 ALDH-1
T1 sequence (P00352 1-501): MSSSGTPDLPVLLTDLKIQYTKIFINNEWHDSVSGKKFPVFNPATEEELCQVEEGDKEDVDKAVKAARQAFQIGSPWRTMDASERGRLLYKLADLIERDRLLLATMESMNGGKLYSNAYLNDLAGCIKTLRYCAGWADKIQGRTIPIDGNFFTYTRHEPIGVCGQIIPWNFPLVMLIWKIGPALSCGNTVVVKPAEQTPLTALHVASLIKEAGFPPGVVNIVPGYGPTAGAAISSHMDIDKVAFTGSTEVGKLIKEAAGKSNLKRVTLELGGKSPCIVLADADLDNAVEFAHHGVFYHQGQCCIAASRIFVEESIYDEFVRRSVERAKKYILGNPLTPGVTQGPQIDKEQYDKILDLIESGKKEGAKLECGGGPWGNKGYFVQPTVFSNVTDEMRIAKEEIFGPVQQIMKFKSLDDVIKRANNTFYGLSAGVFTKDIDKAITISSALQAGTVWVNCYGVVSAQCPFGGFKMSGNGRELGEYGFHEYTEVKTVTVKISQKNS
Protocol: B. ALDH-1 inhibition assay: The ALDH-1 reaction mixture used in the assay contained 100 μM formaldehyde, 2.5 mM NAD+, 20 mM NaCl, 10 mM MgCl2, 1 mM dithiothreitol (DTT; reducing agent), and 50 nM recombinant human ALDH-1 in 50 mM Hepes buffer, pH 7.5 in a final volume of 10 μL using 384-well Corning 3820 plates. After 60 min of pre-incubation of the test ALDH-2 inhibitor compound with ALDH-1, the reaction was started by adding NAD+ and formaldehyde and the assay reaction mixture was allowed to proceed for 60 minutes. Activity of the ALDH-1 enzyme was determined by monitoring NADH formation using Perkin-Elmer Envision Reader with excitation and emission wavelengths set at 340 and 460 nm, respectively.

recombinant human ALDH-3 = molecular target: T2, recombinant human ALDH-3 (Homo sapiens, UniProt P30838); assay: ALDH-3 inhibition assay; format: biochemical; conditions: 60 min pre-incubation; 10 μM = highest concentration tested; read-out: Enzymatic Assays IC50 ALDH-3
T2 sequence (P30838 1-453): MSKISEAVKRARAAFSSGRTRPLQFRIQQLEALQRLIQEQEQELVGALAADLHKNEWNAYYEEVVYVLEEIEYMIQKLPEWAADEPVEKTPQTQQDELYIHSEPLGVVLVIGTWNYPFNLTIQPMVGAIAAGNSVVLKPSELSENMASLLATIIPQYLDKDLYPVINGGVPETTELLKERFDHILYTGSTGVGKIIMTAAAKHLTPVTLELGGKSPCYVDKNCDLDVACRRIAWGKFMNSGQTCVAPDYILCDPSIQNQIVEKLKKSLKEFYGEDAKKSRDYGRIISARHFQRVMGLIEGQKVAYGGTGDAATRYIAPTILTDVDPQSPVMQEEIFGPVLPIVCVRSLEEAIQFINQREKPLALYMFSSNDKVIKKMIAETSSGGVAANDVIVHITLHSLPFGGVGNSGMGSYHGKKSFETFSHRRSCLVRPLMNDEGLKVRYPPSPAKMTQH
Protocol: ALDH-3 inhibition assay: The ALDH-3 reaction mixture used in the assay contained 200 μM benzaldehyde, 2.5 mM NAD+, 20 mM NaCl, 10 mM MgCl2, and 10 nM recombinant human ALDH-3 in 50 mM Hepes buffer, pH 7.5 in a final volume of 10 μL using 384-well Corning 3820 plates. After 60 min of pre-incubation of the test ALDH-2 inhibitor compound with ALDH-3, the reaction was started by adding NAD+ and benzaldehyde and the assay reaction mixture was allowed to proceed for 60 minutes. Activity of the ALDH-3 enzyme was determined by monitoring NADH formation using Perkin-Elmer Envision Reader with excitation and emission wavelengths set at 340 and 460 nm, respectively.

MAO-B = molecular target: T3, MAO-B (Homo sapiens, UniProt P27338); assay: MAO-B inhibition assay; format: biochemical; conditions: 20 min pre-incubation; 10 μM = highest concentration tested; read-out: Enzymatic Assays IC50 MAO-B
T3 sequence (P27338 1-520): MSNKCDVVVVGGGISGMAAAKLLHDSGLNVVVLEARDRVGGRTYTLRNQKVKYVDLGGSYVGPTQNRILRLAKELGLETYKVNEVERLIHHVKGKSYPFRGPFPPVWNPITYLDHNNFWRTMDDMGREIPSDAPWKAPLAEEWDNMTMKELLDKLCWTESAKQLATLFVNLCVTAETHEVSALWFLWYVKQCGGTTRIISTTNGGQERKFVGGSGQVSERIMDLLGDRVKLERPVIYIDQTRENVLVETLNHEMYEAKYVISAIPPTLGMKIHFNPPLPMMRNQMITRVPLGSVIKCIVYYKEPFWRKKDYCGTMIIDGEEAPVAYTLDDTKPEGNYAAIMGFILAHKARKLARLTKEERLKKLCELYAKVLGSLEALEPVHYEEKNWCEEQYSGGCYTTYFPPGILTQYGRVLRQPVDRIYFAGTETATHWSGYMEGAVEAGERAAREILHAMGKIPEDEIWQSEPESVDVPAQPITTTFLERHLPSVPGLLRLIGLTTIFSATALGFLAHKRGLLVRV
Protocol: D. MAO-A and MAO-B inhibition assays: MAO assays included luminogenic MAO substrate, reaction buffers, Luciferin Detection, and a reconstitution buffer with esterase. The MAO reaction mixture used in the assay included microsome contained MAO-A (2 μg) or MAO-B (10 μg), 160 μM substrate for MAO-A or 16 μM substrate for MAO-B, MAO-A buffer (100 mM Hepes buffer, pH 7.5, 5% glycerol) or MAO-B buffer (100 mM Hepes, pH 7.5, 5% glycerol, 10% dimethyl sulfoxide) in a final volume of 30 μL. After 20 minutes of pre-incubation of the MAO-A or MAO-B enzyme with the test ALDH-2 inhibitor compound, the reaction was initiated by adding enzyme substrate and the […] reaction was allowed to proceed for 60 minutes. Reconstituted Luciferin Detection Reagent (30 μL) was then added is added to simultaneously stop the MAO reaction and convert the methyl ester derivative to luciferin and produce light. The amount of light produced is directly proportional to the activity of MAO. The mixtures were further incubated for 20 minutes and activity of the enzyme was determined using Perkin-Elmer Envision Reader.

HepaRG spheroids = assay: HepaRG 3D spheroid assay; format: cell-based; conditions: for Ratio MEC to ALDH2: HepaRG spheroid MEC divided by ALDH-2 IC50; for HepaRG 3D Spheroid MEC: minimum effective concentration crossing vehicle control threshold of cell health marker, 100 μM = highest concentration tested
From the text: See e.g., Walker et al., “The evolution of strategies to minimise the risk of human drug-induced liver injury (DILI) in drug discovery and development,” (2020) Archives of Toxicology, Vol. 94: 2559-2585, which is hereby incorporated by reference herein in its entirety. […] In applying the HepaRG spheroid assay analysis to determining the hepatoxic liability of ALDH-2 inhibitor compounds, consideration is made of the binding to plasma protein and the limitations to CNS penetration due to the blood-brain barrier.
E. HepaRG® 3D spheroid assay: The HepaRG 3D spheroid assay is described in Walker et al., “The evolution of strategies to minimise the risk of human drug-induced liver injury (DILI) in drug discovery and development,” (2020) Archives of Toxicology, Vol. 94: 2559-2585. Briefly, HepaRG® cells were seeded into ultra-low adhesion 96-well black walled clear bottomed spheroid microplates. […] At the end of the incubation period, the spheroids were loaded with the relevant dye/antibody for each cell health marker (spheroid count, spheroid size, DNA structure, mitochondrial mass, mitochondrial membrane potential, oxidative stress, glutathione content, and cellular ATP). The plates were then scanned using an automated fluorescent cellular imager, ArrayScan® (Thermo Scientific Cellomics).

Compound	IC50 (recombinant human ALDH-1) [µM]	IC50 (recombinant human ALDH-3) [µM]	IC50 (MAO-B) [µM]	Ratio MEC to ALDH2 (HepaRG spheroids)	HepaRG 3D Spheroid MEC (HepaRG spheroids)
O=C(NCc1ccc(-c2cccc(=O)[nH]2)cc1)c1ccccc1Cl [(1b), 2-Chloro-N-(4-(6-oxo-1,6-dihydropyridin-2-yl)benzyl)benzamide]	> 10	> 10	> 10	>730	No Effect
Cc1nccc(Br)c1C(=O)NCc1ccc(-c2[nH]c(=O)ccc2F)cc1 [(1g), 4-Bromo-N-(4-(3-fluoro-6-oxo-1,6-dihydropyridin-2-yl)benzyl)-2-methylnicotinamide]	> 10	> 10	> 10	1668	46.7 µM
Cc1cccc(Cl)c1C(=O)NCc1ccc(-c2cccc(=O)[nH]2)nc1 [(1k), 2-Chloro-6-methyl-N-((6′-oxo-1′,6′-dihydro-[2,2′-bipyridin]-5-yl)methyl)benzamide]	> 10	> 10	> 10	2100	21.0 µM
O=C(NCc1ccc(-c2cccc(=O)[nH]2)nc1)c1ccccc1Cl [(1l), 2-chloro-N-((6′-oxo-1′,6′-dihydro-[2,2′-bipyridin]-5-yl)methyl)benzamide]	> 10	> 10	> 10	50	5.95 µM

Next, values leading:

IC50 (recombinant human ALDH-1) [µM]	IC50 (recombinant human ALDH-3) [µM]	IC50 (MAO-B) [µM]	Ratio MEC to ALDH2 (HepaRG spheroids)	HepaRG 3D Spheroid MEC (HepaRG spheroids)	Compound
> 10	> 10	> 10	133	10.4 µM	Cc1cccc(Cl)c1C(=O)NCc1ccc(-c2cccc(=O)[nH]2)cc1 [(1a), 2-Chloro-6-methyl-N-(4-(6-oxo-1,6-dihydropyridin-2-yl)benzyl)benzamide]
> 10	> 10	> 10	90	11.5 µM	Cc1nccc(Cl)c1C(=O)NCc1ccc(-c2cccc(=O)[nH]2)cc1 [(1c), 4-Chloro-2-methyl-N-(4-(6-oxo-1,6-dihydropyridin-2-yl)benzyl)nicotinamide]
